# Experiment: in vitro
# Conditions: human, hela cells, % viability
row,Compound,"viability at 28.5 h, 10 µM [%]"
1,CCN(CC)C(=O)C1C2CCC3(CC(=O)c4ccccc4O3)C21 (stereo not drawn) [CBK284923],105
2,Cn1nc(C2CCN(C(=O)c3cccs3)CC2)c2cccnc21 [CBK284925],82.9
3,Cc1cc(C)n(CC(=O)N2CCCC(c3cc4cccnc4[nH]3)C2)n1 (stereo not drawn) [CBK284928],96.2
4,CC(C)n1nccc1C(=O)N1CCCC(c2cc3cccnc3[nH]2)C1 (stereo not drawn) [CBK284930],99.3
5,CC1CCCN(C(=O)C2C3CCC4(CC(=O)c5ccccc5O4)C32)C1 (stereo not drawn) [CBK284932],89.8
6,Cc1cc(C[C@@H]2CCC[C@H]2NCc2cccnc2)on1 [CBK284933],97.1
7,Cc1cc(C[C@@H]2CCC[C@H]2NCc2nc3ccccc3[nH]2)on1 [CBK284935],87.3
8,O=C(C1CCCCC1)N1CCCC(c2cc3cccnc3[nH]2)C1 (stereo not drawn) [CBK284938],98.4
9,O=C(c1cccc(F)c1)N1CCCC(c2cc3cccnc3[nH]2)C1 (stereo not drawn) [CBK284939],122
10,O=C(c1cccs1)N1Cc2ccccc2OC2(CCOCC2)C1 [CBK284942],103
11,C=Cn1cc(CN2CCCC(c3cc4cccnc4[nH]3)C2)c(C)n1 (stereo not drawn) [CBK284944],115
12,CC(C)(C)C(=O)N1CCCC(c2cc3cccnc3[nH]2)C1 (stereo not drawn) [CBK284945],102
13,Cc1ccc(-c2cc(CC3(C(=O)NC4CC4)CCOCC3)on2)cc1 [CBK284946],99.7
14,O=C1CC2(CCC3C(C(=O)N4CCCCC4)C32)Oc2ccccc21 (stereo not drawn) [CBK284947],105
15,Cn1cncc1CN1CCCC(c2cc3cccnc3[nH]2)C1 (stereo not drawn) [CBK284948],98.4
16,CCCn1ncc(CN2CCC(c3cc4cccnc4[nH]3)CC2)c1C [CBK284949],97.2
17,Cc1ccc2c(c1)C(=O)CC1(CCC3C(C(=O)N4CCCC4)C31)O2 (stereo not drawn) [CBK284951],98.3
18,Cc1nccn1CC1(O)CCN(Cc2ccc(F)c(F)c2)CC1 [CBK284955],117
19,O=C(CCn1c(C(F)F)cc2cccnc21)N1CCOCC1 [CBK284956],101
20,CC1CCCCN1C(=O)C1C2CCC3(CC(=O)c4ccccc4O3)C21 (stereo not drawn) [CBK284960],101
21,Cc1nccn1CC1(O)CCN(Cc2ccccc2F)CC1 [CBK284961],105
22,CC(C)(C)NC(=O)C1C2CCC3(CC(=O)c4cc(Cl)ccc4O3)C21 (stereo not drawn) [CBK284963],109
23,Cc1ccc(-c2cc3cccnc3n2CCC(=O)NC2CC2)cn1 [CBK284964],97.4
24,CN1CCC2(CC1)CN(C(=O)C1CC1)Cc1ccccc1O2 [CBK284967],102

row,Compound,"viability at 28.5 h, 10 µM [%]"
1,Cc1ccc(S(=O)(=O)N2CC[C@@H]3C[C@H](NC(=O)C4CC4C)[C@@H]32)cc1 (stereo partly drawn) [CBK284968],90
2,O=C1CC2(CCC3C(C(=O)N4CCCC4)C32)Oc2ccccc21 (stereo not drawn) [CBK284969],104
3,Cn1cc(C2CCCCCN2C(=O)c2cccc(F)c2)cn1 (stereo not drawn) [CBK284970],102
4,Cn1cc(C2CCCCCN2C(=O)c2nn(C)cc2Cl)cn1 (stereo not drawn) [CBK284972],93.2
5,Cc1noc(C)c1C(=O)N1CCCCCC1c1cnn(C)c1 (stereo not drawn) [CBK284974],98.8
6,O=C(c1n[nH]c2c1CCCC2)N1CCc2ncc(Cl)cc2C1 [CBK284975],93.4
7,O=C1CC(C(=O)N2CCc3ncc(Cl)cc3C2)c2ccccc2N1 (stereo not drawn) [CBK284976],94.4
8,CCn1nc(C)c(CN2CCCC(c3cc4cccnc4[nH]3)C2)c1C (stereo not drawn) [CBK284977],107
9,Cc1cc2ccnc(Cl)c2n1CC1(O)CC2CCC(C1)N2 (stereo not drawn) [CBK284980],95
10,Cc1nccn1CC1(O)CCN(CC2=CCC3CC2C3(C)C)CC1 (stereo not drawn) [CBK284981],94.6
11,CC1CCN(C(=O)CCn2c(C(F)F)cc3cccnc32)CC1 [CBK284982],85.6
12,O=C(CCn1c(C(F)F)cc2cccnc21)N1CCCCCC1 [CBK284983],96.9
13,O=C(CCn1c(C(F)F)cc2cccnc21)N1CCCC(CO)C1 (stereo not drawn) [CBK284985],99.5
14,Cn1nc(C2CCN(C(=O)Cc3ccsc3)CC2)c2cccnc21 [CBK284986],101
15,Cc1ccc(C(=O)N2CCC(c3nn(C)c4ncccc34)CC2)s1 [CBK284988],86.1
16,O=C(c1c(F)cccc1F)N1CCC(c2cc3cccnc3[nH]2)CC1 [CBK284997],91.5
17,Cc1cc(C)n(CC(=O)N2CCC(c3cc4cccnc4[nH]3)CC2)n1 [CBK284999],91.3
18,O=C(c1ccc(F)cc1)N1CCC(c2cc3cccnc3[nH]2)CC1 [CBK285001],96.8
19,O=C(Cn1c(C2CCNCC2)cc2cccnc21)NC1CCCC1 [CBK285002],104
20,COCC(=O)NC(Cc1cccs1)c1nc(C)cs1 (stereo not drawn) [CBK285004],87.3
21,Cc1csc(C(Cc2cccs2)NC(=O)C2CCOCC2)n1 (stereo not drawn) [CBK285006],89.2
22,CC(=O)N1C[C@@H](N(C)C)[C@H](c2cn(C)c3ccccc23)C1 [CBK285007],99.5
23,CC(C)N(C(=O)Cn1c(C(F)F)cc2cccnc21)C(C)C [CBK285009],100
24,COCC(C)NC(=O)Cn1c(C(F)F)cc2cccnc21 (stereo not drawn) [CBK285010],105

row,Compound,"viability at 28.5 h, 10 µM [%]"
1,O=C(Cn1cccc2cc(C3CCCNC3)nc1-2)NC1CCCC1 (stereo not drawn) [CBK285015],95.5
2,Cc1n[nH]c(C)c1CC(=O)N1CCCC(c2cc3ccccc3cn2)C1 (stereo not drawn) [CBK285018],103
3,Cc1csc(C(Cc2ccsc2)NCc2cccnc2)n1 (stereo not drawn) [CBK285020],96.6
4,CC(=O)N1Cc2cc(C)ccc2OC2(CCN(CC3CC3)CC2)C1 [CBK285021],95
5,CC1CCCN(C(=O)CCn2c(C(F)F)cc3cccnc32)C1 (stereo not drawn) [CBK285025],97.9
6,CCN1CCN(C(=O)CCn2c(C(F)F)cc3cccnc32)CC1 [CBK285026],112
7,CC(=O)NC(c1ccccn1)C1CCCN(C(=O)C(C)C)C1 (stereo not drawn) [CBK285030],111
8,O=C1NCCCC12CCN(Cc1cccc3ncccc13)CC2 [CBK285033],101
9,O=C(Cc1ccccc1F)N1CCC(c2cc3cccnc3[nH]2)CC1 [CBK285035],104
10,CC(CC(=O)N1CCC(c2cc3cccnc3[nH]2)CC1)n1cccn1 (stereo not drawn) [CBK285036],100
11,CC(=O)N1Cc2ccccc2OC2(CCN(C(=O)C3CC3)CC2)C1 [CBK285037],104
12,CC(C)(C)OC(=O)N1CCC(c2nc3ccccc3cc2N)CC1 [CBK285038],82.6
13,CC(=O)NC(c1ccccn1)C1CCCN(C(=O)C2CC2)C1 (stereo not drawn) [CBK285040],100
14,Cn1cc(CN2CCCC(c3cc4ccccc4cn3)C2)cn1 (stereo not drawn) [CBK285042],101
15,Cc1csc(C(Cc2ccsc2)NC(=O)C2CCOCC2)n1 (stereo not drawn) [CBK285047],102
16,Cc1ccc2c(c1)C(=O)NCC1(CCN(Cc3ccccc3)CC1)O2 [CBK285048],104
17,CC(=O)NC(c1ccccn1)C1CCN(C(=O)C2CCCCC2)CC1 (stereo not drawn) [CBK285049],98
18,Cn1nc(C2CCN(C(=O)CCc3ccccc3)CC2)c2cccnc21 [CBK285050],103
19,Cc1c(C(=O)NC(Cc2cccs2)c2nccs2)cnn1C (stereo not drawn) [CBK285053],97.1
20,Cn1nccc1C(=O)NC(Cc1cccs1)c1nccs1 (stereo not drawn) [CBK285055],102
21,c1cnc2[nH]c(C3CCNCC3)c(CN3CCCCCC3)c2c1 [CBK285057],102
22,O=C(Cn1c(C2CCCNC2)cc2cccnc21)N1CCCC1 (stereo not drawn) [CBK285060],94.4
23,CN(C)CC(=O)NC(Cc1cccs1)c1nccs1 (stereo not drawn) [CBK285061],91.1
24,O=C(c1n[nH]cc1Cl)N1CCCC(c2cc3ccccc3cn2)C1 (stereo not drawn) [CBK285062],88

row,Compound,"viability at 28.5 h, 10 µM [%]"
1,O=C(CCn1c(C(F)F)cc2cccnc21)NC1CCCC1 [CBK285063],95.5
2,O=C(CCn1c(C(F)F)cc2cccnc21)NC1CCCCC1 [CBK285064],92.1
3,COc1ccccc1NC(=O)CCn1c(C(F)F)cc2cccnc21 [CBK285065],99.2
4,O=C(CCn1c(C(F)F)cc2cccnc21)NCc1ccc(F)cc1 [CBK285067],102
5,O=C(CCn1c(C(F)F)cc2cccnc21)NCc1ccccn1 [CBK285068],100
6,CN(Cc1ccncc1)C(=O)CCn1c(C(F)F)cc2cccnc21 [CBK285070],81
7,CN(C)CC1COc2ccccc2CN1C(=O)Cc1ccccc1F (stereo not drawn) [CBK285080],89.5
8,CCC(C)NC(=O)Cn1c(C2CCCNC2)cc2cccnc21 (stereo not drawn) [CBK285085],109
9,O=C(Cn1cccc2cc(C3CCCNC3)nc1-2)N1CCCC1 (stereo not drawn) [CBK285086],88.7
10,O=C1CCCN1CC(=O)N1CCCC(c2cc3ccccc3cn2)C1 (stereo not drawn) [CBK285091],99.7
11,O=C(Cn1ccnc1)NC(Cc1cccs1)c1nccs1 (stereo not drawn) [CBK285092],93.2
12,Cc1n[nH]c(C)c1CC(=O)NC(Cc1cccs1)c1nccs1 (stereo not drawn) [CBK285093],92.1
13,O=C(CCCn1ccnc1)NC(Cc1cccs1)c1nccs1 (stereo not drawn) [CBK285094],90.1
14,Cn1cc(Cl)c(C2CCCCCN2C(=O)c2ccco2)n1 (stereo not drawn) [CBK285105],96.5
15,Cc1csc(C(Cc2ccsc2)NC(=O)c2ccnn2C)n1 (stereo not drawn) [CBK285107],104
16,Cc1csc(C(Cc2ccsc2)NC(=O)c2ccc(=O)[nH]c2)n1 (stereo not drawn) [CBK285109],95.2
17,O=C(NC(Cc1ccsc1)c1cccnc1)C1CCOCC1 (stereo not drawn) [CBK285110],92.9
18,Cn1cccc1CN1CCCC(n2c(=O)oc3ccccc32)C1 (stereo not drawn) [CBK285111],103
19,CO[C@H]1CC[C@H](C(=O)NC(Cc2ccsc2)c2cccnc2)CC1 (stereo partly drawn) [CBK285114],107
20,Cc1c(C(=O)NC(Cc2ccsc2)c2cccnc2)cnn1C (stereo not drawn) [CBK285115],110
21,O=C(NC(Cc1ccsc1)c1cccnc1)C1CCOC1 (stereo not drawn) [CBK285116],106
